In brackets after ≈: the same amount, converted by molar mass.
Legend:
M. tb H37Rv = test: MIC determination against M. tb H37Rv (MIC-MABA); type: cell-based, Mycobacterium tuberculosis; conditions: Mycobacterium tuberculosis, H37RV, 240 h, read-out: M. tb H37Rv: MIC-MABA, M. tb H37Rv; 7H9 broth; 10 days exposure; MIC = lowest concentration inhibiting fluorescence by 90%
M. ab_ATCC = test: MIC against Mycobacterium abscessus (M. ab_ATCC, MHII), procedure of Franz 2017; type: cell-based; conditions: Mycobacteroides abscessus, Mycobacterium abscessus ATCC
Text: The procedure described in Franz 2017 was used to generate the data shown in column 2 of Table 1.

SMILES | MIC (M. tb H37Rv) [µg/mL] | MIC (M. ab_ATCC) [µg/mL]
COc1nc2[nH]c(C(=O)NC3CCC(C)(C)CC3)cc2s1 [MPL-456, N-(4,4-dimethylcyclohexyl)-2-methoxy-4H-pyrrolo[2,3-d]thiazole-5-carboxamide] | 0.317 (≈ 1.03 µM) | 1 (≈ 3.25 µM)
O=C(NC1CC[Si]2(CCCC2)CC1)c1cc2sc(OC3CC3)nc2[nH]1 [MPL-458, 2-(cyclopropoxy)-N-(5-silaspiro[4.5]decan-8-yl)-4H-pyrrolo[2,3-d]thiazole-5-carboxamide] | 0.124 (≈ 0.33 µM) | > 64
C[Si]1(C)CCCC(NC(=O)c2cc3sc(-c4ccccc4)nc3[nH]2)CC1 (racemic) [MPL-357, N-(1,1-dimethylsilepan-4-yl)-2-phenyl-4H-pyrrolo[2,3-d]thiazole-5-carboxamide] | 0.012 (≈ 0.0313 µM) | > 64
COc1nc2[nH]c(C(=O)NC3CC[Si]4(CCCC4)CC3)cc2s1 [MPL-393, 2-methoxy-N-(5-silaspiro[4.5]decan-8-yl)-4H-pyrrolo[2,3-d]thiazole-5-carboxamide] | 0.062 (≈ 0.177 µM) | > 64
C[Si]1(C)CCCC(NC(=O)c2cc3sc(-c4cccnc4)nc3[nH]2)CC1 (stereo not drawn) [MPL-365, N-(1,1-dimethylsilepan-4-yl)-2-(3-pyridyl)-4H-pyrrolo[2,3-d]thiazole-5-carboxamide] | 0.125 (≈ 0.325 µM) | > 64
O=C(NC1CC[Si]2(CCCCC2)CC1)c1cc2sc(-c3ccccc3)nc2[nH]1 [MPL-359, 2-phenyl-N-(6-silaspiro[5.5]undecan-3-yl)-4H-pyrrolo[2,3-d]thiazole-5-carboxamide] | 0.014 (≈ 0.0342 µM) | > 64
Cc1nc2[nH]c(C(=O)NC3CCC(C)(C)CC3)cc2s1 [MPL-020, N-(4,4-dimethylcyclohexyl)-2-methyl-4H-pyrrolo[2,3-d]thiazole-5-carboxamide] | 0.53 (≈ 1.82 µM) | 2 (≈ 6.86 µM)
COc1ccccc1-c1nc2[nH]c(C(=O)NC3CC[Si](C)(C)CC3)cc2s1 [MPL-372, N-(1,1-dimethylsilinan-4-yl)-2-(2-methoxyphenyl)-4H-pyrrolo[2,3-d]thiazole-5-carboxamide] | 0.138 (≈ 0.345 µM) | > 64
C[C@@H]1[C@@H](NC(=O)c2cc3sc(C4CC4)nc3[nH]2)C[C@H]2C[C@@H]1C2(C)C [MPL-144, 2-cyclopropyl-N-((1S,2S,3S,5R)-2,6,6-trimethylbicyclo[3.1.1]heptan-3-yl)-4H-pyrrolo[2,3-d]thiazole-5-carboxamide] | 1.5 (≈ 4.37 µM) | > 64
COc1nc2[nH]c(C(=O)NC3CCC[Si](C)(C)CC3)cc2s1 (racemic) [MPL-395, N-(1,1-dimethylsilepan-4-yl)-2-methoxy-4H-pyrrolo[2,3-d]thiazole-5-carboxamide] | 0.047 (≈ 0.139 µM) | 1 (≈ 2.96 µM)
C[Si]1(C)CCCC(NC(=O)c2cc3sc(C4CC4)nc3[nH]2)CCC1 [MPL-304, 2-cyclopropyl-N-(1,1-dimethylsilocan-5-yl) -4H-pyrrolo[2,3-d]thiazole-5-carboxamide] | 0.291 (≈ 0.805 µM) | > 64
COc1nc2[nH]c(C(=O)NC3CC[Si]4(CCCCC4)CC3)cc2s1 [MPL-394, 2-methoxy-N-(6-silaspiro[5.5]undecan-3-yl)-4H-pyrrolo[2,3-d]thiazole-5-carboxamide] | 0.04 (≈ 0.11 µM) | > 64
Cc1c(C(=O)NC2CC[Si]3(CCCCC3)CC2)[nH]c2nc(-c3ccccc3)sc12 [MPL-431, 6-methyl-2-phenyl-N-(6-silaspiro[5.5]undecan-3-yl)-4H-pyrrolo[2,3-d]thiazole-5-carboxamide] | 0.021 (≈ 0.0496 µM) | > 64
C[Si]1(C)CCCC(NC(=O)c2cc3sc(OC4CCC4)nc3[nH]2)CC1 (stereo not drawn) [MPL-475, 2-(cyclobutoxy)-N-(1,1-dimethylsilepan-4-yl)-4H-pyrrolo[2,3-d]thiazole-5-carboxamide] | 0.046 (≈ 0.122 µM) | 16 (≈ 42.4 µM)
O=C(NC1CC[Si]2(CCCC2)CC1)c1cc2sc(-c3ccccc3)nc2[nH]1 [MPL-358, 2-phenyl-N-(5-silaspiro[4.5]decan-8-yl)-4H-pyrrolo[2,3-d]thiazole-5-carboxamide] | 0.033 (≈ 0.0834 µM) | > 64
COCCOc1nc2[nH]c(C(=O)NC3CC[Si]4(CCCCC4)CC3)cc2s1 [MPL-427, 2-(2-methoxyethoxy)-N-(6-silaspiro[5.5]undecan-3-yl)-4H-pyrrolo[2,3-d] thiazole-5-carboxamide] | 0.036 (≈ 0.0883 µM) | > 64
COCc1nc2[nH]c(C(=O)NC3CC[Si]4(CCCCC4)CC3)cc2s1 [MPL-429, 2-(methoxymethyl)-N-(6-silaspiro[5.5]undecan-3-yl)-4H-pyrrolo[2,3-d]thiazole-5-carboxamide] | 0.058 (≈ 0.154 µM) | 64 (≈ 169 µM)
COc1nc2[nH]c(C(=O)NC3CC[Si](C)(C)C3)cc2s1 (stereo not drawn) [MPL-403, N-(1,1-dimethylsilolan-3-yl)-2-methoxy-4H-pyrrolo[2,3-d]thiazole-5-carboxamide] | 0.809 (≈ 2.61 µM) | 4 (≈ 12.9 µM)
C[Si]1(C)CCC(NC(=O)c2cc3sc(C4CC4)nc3[nH]2)C1 (stereo not drawn) [MPL-297, 2-cyclopropyl-N-(1,1-dimethylsilolan-3-yl)-4H-pyrrolo[2,3-d]thiazole-5-carboxamide] | 0.982 (≈ 3.07 µM) | > 64
Cc1nc2[nH]c(C(=O)N[C@H]3C[C@H]4C[C@H](C4(C)C)[C@@]3(C)O)cc2s1 [MPL-224, N-[(1R,2R,3S,5R)-2-hydroxy-2,6,6-trimethyl-norpinan-3-yl]-2-methyl-4H-pyrrolo[2,3-d]thiazole-5-carboxamide] | 0.39 (≈ 1.17 µM) | > 64
C[Si]1(C)CCCC(NC(=O)c2cc3sc(-c4ccccc4)nc3[nH]2)CCC1 [MPL-369, N-(1,1-dimethylsilocan-5-yl)-2-phenyl-4H-pyrrolo[2,3-d]thiazole-5-carboxamide] | 0.031 (≈ 0.078 µM) | > 64
